Where a name gives a salt, the structure may show the parent alone. ± gives the standard error.
Columns and labels:
621-102 (TSC2-deficient) = experiment: relative viability vs DMSO; higher = less cytotoxic; details: serum: 10% FBS, 72 h
621-103 (TSC2-rescued) = experiment: as above; details: serum: 10% FBS, 72 h
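Also: immortalized renal angiomyolipoma cells stably carrying empty vector or TSC2, dosed in 384-well plates in DMEM, viability normalized to vehicle-treated wells within each plate.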

| Compound | relative viability (621-102 (TSC2-deficient); 0.0001 µM) | relative viability (621-102 (TSC2-deficient); 0.001 µM) | relative viability (621-102 (TSC2-deficient); 0.01 µM) | relative viability (621-102 (TSC2-deficient); 0.1 µM) | relative viability (621-102 (TSC2-deficient); 1 µM) | relative viability (621-102 (TSC2-deficient); 10 µM) | relative viability (621-103 (TSC2-rescued); 0.0001 µM) | relative viability (621-103 (TSC2-rescued); 0.001 µM) | relative viability (621-103 (TSC2-rescued); 0.01 µM) | relative viability (621-103 (TSC2-rescued); 0.1 µM) | relative viability (621-103 (TSC2-rescued); 1 µM) | relative viability (621-103 (TSC2-rescued); 10 µM) |
| --- | --- | --- | --- | --- | --- | --- | --- | --- | --- | --- | --- | --- |
| COCCCOc1cc(C[C@@H](C[C@H](N)[C@@H](O)C[C@H](C(=O)NCC(C)(C)C(N)=O)C(C)C)C(C)C)ccc1OC [Aliskiren hemifumarate] | 110 ± 2.6% | 111 ± 2.7% | 106 ± 5.1% | 112 ± 1.9% | 98.8 ± 5.5% | 95.9 ± 5.5% | 105 ± 2.6% | 100 ± 1.1% | 104 ± 6.3% | 94.7 ± 4.8% | 96.59 ± 0.53% | 98.8 ± 2.7% |
| O=C1c2ccccc2C(=O)c2c1ccc(O)c2O [Alizarin] | 108 ± 2.3% | 110 ± 0.84% | 108 ± 4.6% | 105 ± 1.5% | 107 ± 2.9% | 83 ± 3% | 101 ± 1.6% | 102 ± 5% | 101.4 ± 0.27% | 99.9 ± 3.2% | 95.2 ± 4.5% | 97.3 ± 1.1% |
| Oc1ncnc2[nH]ncc12 [Allopurinol] | 96.2 ± 0.32% | 105 ± 2.6% | 102 ± 1.7% | 91.9 ± 0.92% | 99.48 ± 0.58% | 101.9 ± 0.86% | 103 ± 3.1% | 98.4 ± 1.6% | 101 ± 3.5% | 98.7 ± 3.6% | 98.2 ± 1.6% | 100 ± 1.9% |
| NC12CC3CC(CC(C3)C1)C2 [Amantadine HCl (Symmetrel)] | 97.2 ± 2.8% | 96.9 ± 4.5% | 94.9 ± 3.8% | 98.5 ± 3.3% | 100.9 ± 0.5% | 98.09 ± 0.17% | 92.2 ± 5.4% | 98.7 ± 2.9% | 106 ± 2.3% | 111 ± 3.6% | 108 ± 1.8% | 96.89 ± 0.4% |
| CC(NC(C)(C)C)C(=O)c1cccc(Cl)c1 (stereo not given) [Amfebutamone] | 110 ± 2.9% | 103 ± 1.4% | 104.4 ± 0.4% | 112 ± 2.4% | 103 ± 2.4% | 103 ± 3.5% | 103.2 ± 0.3% | 105 ± 2.2% | 98.8 ± 1.9% | 101 ± 2.8% | 102 ± 2.8% | 102 ± 1.2% |
| CCN1CCCC1CNC(=O)c1cc(S(=O)(=O)CC)c(N)cc1OC (stereo not given) [Amisulpride] | 111 ± 3.8% | 100 ± 1.3% | 104.3 ± 0.84% | 105 ± 3% | 107.5 ± 0.4% | 110 ± 1.6% | 104 ± 1.8% | 105 ± 2.5% | 110.7 ± 0.99% | 103.5 ± 0.35% | 113 ± 4.8% | 114 ± 3.6% |
| CCOC(=O)C1=C(COCCN)NC(C)=C(C(=O)OC)C1c1ccccc1Cl (stereo not given) [Amlodipine besylate] | 65.2 ± 8.7% | 72.3 ± 1.8% | 76.1 ± 6.9% | 71.3 ± 8.8% | 65.1 ± 9.1% | 53.6 ± 2.7% | 96.2 ± 2.2% | 91.1 ± 4.7% | 99.4 ± 2.6% | 102 ± 9% | 94.5 ± 5.2% | 57.2 ± 5% |
| CC(C)(C#N)c1cc(Cn2cncn2)cc(C(C)(C)C#N)c1 [Anastrozole (Arimidex)] | 125 ± 1.8% | 109 ± 6.2% | 108 ± 3.5% | 106 ± 2.2% | 120 ± 1.5% | 119 ± 4.3% | 101 ± 1.4% | 104 ± 3.2% | 101 ± 1.7% | 103.6 ± 0.71% | 99.407 ± 0.097% | 99.4 ± 2.6% |
| N#CC1(c2ccc(NC(=O)c3cccnc3NCc3ccncc3)cc2)CCCC1 [Apatinib] | 101 ± 3.1% | 109.9 ± 0.77% | 111.8 ± 0.42% | 111 ± 4.4% | 102 ± 4.9% | 101.34 ± 0.059% | 111.1 ± 1.1% | 103 ± 3.9% | 110 ± 2.4% | 107 ± 2.4% | 107 ± 7.4% | 103.7 ± 0.61% |
| O=c1cc(-c2ccc(O)cc2)oc2cc(O)cc(O)c12 [Apigenin] | 90.7 ± 0.81% | 105 ± 2.6% | 110 ± 2.2% | 113 ± 5.3% | 111 ± 2.9% | 112 ± 5.7% | 112 ± 4.7% | 128 ± 1.4% | 108.9 ± 0.2% | 115 ± 4.3% | 111 ± 4.9% | 125 ± 4% |
| COc1ccc(-n2nc(C(N)=O)c3c2C(=O)N(c2ccc(N4CCCCC4=O)cc2)CC3)cc1 [Apixaban] | 107.9 ± 0.95% | 121 ± 0.2% | 112 ± 4.2% | 108 ± 3.1% | 91.79 ± 0.34% | 111 ± 2.4% | 117 ± 4.5% | 116.3 ± 0.34% | 115 ± 1.5% | 110 ± 3.2% | 104 ± 3.3% | 105 ± 4.6% |
| COc1cc(OC)c(OC)cc1C=O [Asaraldehyde] | 112 ± 3.5% | 116.4 ± 0.26% | 109.6 ± 0.37% | 96.2 ± 1.4% | 113.4 ± 0.62% | 92.3 ± 1.9% | 101 ± 2% | 103 ± 2% | 94.8 ± 1.3% | 99.98 ± 0.77% | 102.5 ± 0.13% | 96.06 ± 0.3% |
| CN1CC2c3ccccc3Oc3ccc(Cl)cc3C2C1 (stereo not given) [Asenapine maleate] | 110 ± 1.5% | 105.4 ± 0.74% | 106.4 ± 0.12% | 105 ± 5.3% | 110 ± 3.4% | 89.34 ± 0.58% | 110 ± 0.8% | 113 ± 3.3% | 110.6 ± 0.71% | 112 ± 5% | 103 ± 3.5% | 88.47 ± 0.57% |
| CN1[C@@H]2CC[C@H]1C[C@@H](OC(=O)C(CO)c1ccccc1)C2 (stereo not given in full) [Atropine sulfate monohydrate] | 64.6 ± 5.9% | 79 ± 1.7% | 83.3 ± 5.4% | 79.6 ± 6.8% | 70.8 ± 5.3% | 63.6 ± 6.5% | 80.5 ± 7% | 92.1 ± 8.5% | 105 ± 6.5% | 97.9 ± 6.4% | 89.9 ± 3.7% | 80.3 ± 5% |
| CCN1CCN(C(=O)Cc2ccc(Nc3ncc(F)c(Nc4ccc(C(=O)Nc5ccccc5Cl)cc4)n3)cc2)CC1 [Aurora A Inhibitor I] | 105.83 ± 0.089% | 113 ± 3.6% | 114 ± 3.2% | 105 ± 2.2% | 104 ± 1.4% | 0.786 ± 0.16% | 101 ± 0.28% | 100.7 ± 0.54% | 98.55 ± 0.77% | 99.54 ± 0.75% | 87.1 ± 2.3% | 0.915 ± 0.027% |
